Results taken from publication doi:10.1101/2025.09.29.679234, “Engineered antimicrobial-derived peptides to manipulate mixed microbial systems” (bioRxiv, 2025).
Where two headings read alike, the source gives them in different places. Marks after values point to notes of the source that are not given here. No end group written: not given here. *: point of attachment. FITC = O=C1OC2(c3ccc(O)cc3Oc3cc(O)ccc32)c2ccc(NC(=S)*)cc21

Key:
[1] = tested on: L. seeligeri; assay: Cell-binding assay by flow cytometry; set-up: species or system Listeria seeligeri; settings: for binding at the tested pHs (in words): pH 4.0, 6.0 and 7.4, Figure S10
Protocol: (§1) The binding affinity and avidity of pediocin to various Gram-positive and Gram-negative bacteria were studied using flow cytometry. Late log-phase cells were washed in the sodium phosphate buffer (5 mM, pH 6.0) and resuspended at an OD600 of 10^–3 in sodium-acetate buffer (25 mM, pH 4.0), sodium phosphate buffer (5 mM, pH 6.0) or sodium phosphate buffer (5mM, pH 7.4) containing 1 % BSA (bovine serum albumin) and 100 mM NaCl. Cells were incubated with varying concentrations of the conjugated peptide at 4 °C for 30 min. The unbound peptide was removed by centrifugation, and the pellet was resuspended in their respective binding containing 1 % BSA. Flow cytometry was performed on an Attune NxT flow cytometer (Life Technologies/ThermoFisher Scientific, Carlsbad, CA). Data (≥10^4 events were recorded) was recorded using a […] (488 nm) voltage of 360 V, gating was performed on SSC-A versus SSC-H plot to reduce false events.

[2] = tested on: E. faecium; assay: Cell-binding assay by flow cytometry; set-up: species or system Enterococcus faecium; settings: pH 6.0
Protocol: as §1

[3] = tested on: L. seeligeri in a 5 species synthetic community; assay: Depletion by FACS of FITC-labelled cells in the mixed community (16S V3-V4 amplicon sequencing of the fluorescence-negative population); type: cell-based, Listeria seeligeri; settings: 40 μM of Ped-FITC printed in method, 4 °C 30 min, pH 6.0, 1 % BSA, 100 mM NaCl
Source text: We posited that pediocin PA-1 characterized here could be a potential tool to modulate the abundance of specific species in an intact microbial community. To this end, we pursued two approaches: 1) using synthetic pediocin PA-1 to deplete specific species by killing and 2) using FITC-conjugated pediocin PA-1 to deplete specific species by cell sorting. To deplete L. seeligeri by killing, we created a synthetic community of L. casei, L. plantarum L. cremoris, E. faecium, and L. seeligeri and grew it for 2 h. We then split the culture into 3 parts to which we added 1 μM, 10 μM, or 0 (control) unmodified pediocin PA-1 (Lifetein), respectively. We observed that after 4 h, the proportion of L. seeligeri in the control (untreated) increased from 18 % to 60 %. […] Next, we assessed the ability of FITC-conjugated pediocin (Ped-FITC) and its 15-mer version to deplete the target species through cell sorting. Again, we created a synthetic community containing L. seeligeri in abundance and assessed the proportion before and after FACS of FITC labeled cells. We attempted to sequence the fluorescence-positive population but were unsuccessful due to poor DNA yield. However, the genomic DNA isolated from the fluorescence-negative population indicated depletion of more than 50 % in the proportion of L. seeligeri from the synthetic community (Figure 4B). […]

[4] = tested on: L. coryniformis; assay: Cell-binding assay by flow cytometry; set-up: species or system Lactobacillus coryniformis; settings: for Kd: 4 °C 30 min, 1 % BSA, 100 mM NaCl, Hill fit, read-out: Apparent KD
Protocol: as §1

[5] = tested on: L. seeligeri; type: cell-based, Listeria seeligeri; settings: for antimicrobial activity (in words): kill curve / growth inhibition, Figures S7 and S9
Protocol: (§2) To determine the potency of the purified pediocin PA-1, we generated kill-curves against a range of target bacteria (Figure 1B). The concentration range tested was 3 pM to 3 μM following 10-fold serial dilutions. […] This is in approximate agreement with the published potency of pediocin PA-1 [28] . Though the molecular mass of pediocin PA-1 is expected to be 4.5 kDa, we observed the partially purified peptide to migrate with an apparent mass of ~12.5 kDa (Figure 1B). However, subsequent analysis by LC-MS yielded peaks of multiple m/z with the predominant peak at the expected molecular size of 4.6 kDa (Figure S4). The purified pediocin PA-1, separated on denaturing but non-reducing SDS-PAGE (since this bacteriocin contains two crucial disulfide bonds), was subjected to agar-overlay assay using L. seeligeri as indicator organism (Figure S5).
(§3) The antimicrobial spectrum of pediocin PA-1 was assayed using a kill curve. Cultures grown overnight were resuspended in fresh medium at an OD600 of 0.05. EC50 was determined by incubating cells with varying concentrations of pediocin in a 96-well plate, and growth was measured at 600 nm after 24 h.
Figure S7. Growth inhibition of L. seeligeri by modified and unmodified pediocin PA-1.

[6] = tested on: B. subtilis; assay: Cell-binding assay by flow cytometry; set-up: species or system Bacillus subtilis; settings: for Kd: Atto488 conjugate up to 2 μM, 4 °C 30 min, 1 % BSA, 100 mM NaCl, Hill fit, read-out: Apparent KD
Protocol: as §1

[7] = tested on: L. coryniformis; assay: Kill curve (growth at 600 nm after 24 h); type: cell-based, Lactobacillus coryniformis; settings: Figure 1C, start OD600 0.05, 96-well plate, 3 pM to 3 μM, 10-fold serial dilutions
Protocol: as §2, §3

[8] = tested on: L. cremoris; assay: Cell-binding assay by flow cytometry; set-up: species or system Lactococcus cremoris; settings: Table S1, organism printed as L. lactis
Protocol: as §1

[9] = tested on: E. coli; assay: Cell-binding assay by flow cytometry; settings: Table S1
Protocol: as §1

[10] = tested on: L. casei; assay: Cell-binding assay by flow cytometry; set-up: species or system Lacticaseibacillus casei; settings: Table S1
Protocol: as §1

[11] = type: physicochemical
Source text: We then proceeded to clone the pediocin operon from P. acidilactici UL5 into pSIP-P27 vector for heterologous expression in other lactic acid bacteria viz. Lactiplantibacillus plantarum WCFS1, Lactococcus cremoris MG1363 and the well-established expression host, E. coli MG1655. The pediocin operon imparted anti-listerial activity to the L. plantarum culture supernatant but not to that of L. cremoris or E. coli (Figure 1A). Based on the degree of bioactivity, we concluded that the level of recombinant pediocin PA-1 accumulated in L. plantarum culture was […] that observed for P. acidilactici UL5 and was therefore not pursued further. Thus, for subsequent studies, we isolated pediocin PA-1 from P. acidilactici UL5 directly using the cell adsorption-desorption approach (Figure S2). […] We attempted to further purify the preparation using reverse phase HPLC with minimal enhancement in purity but a significant loss in yield (Figure S3). The peptide recovered after cell adsorption-desorption and dialysis was lyophilized for long-term storage to minimize any loss in activity. The peptide using this method was purified 189-fold with specific activity of 9,434 AU·mg^−1 as measured by agar-well diffusion method (Figure 1B, Figure S2A–C).

[12] = tested on: indicator strains; assay: Agar-well diffusion assay, specific activity of the purified peptide; type: cell-based; settings: agar-well diffusion method; peptide after cell adsorption-desorption and dialysis, purified 189-fold
Protocol: Pediocin PA-1 is known to display narrow-spectrum activity against only a few species that include Lactobacillus coryniformis B-4390 and various Listeria species. We re-tested the antimicrobial spectrum of the pediocin PA-1 producer strain, Pediococcus acidilactici UL5, using agar-well diffusion assays against a few representative members of lactic acid bacteria (LAB) and Gram-negative, E. coli DH5α as a control (Figure S1). The effectiveness of the spent cell-free culture medium was evaluated by its ability to inhibit growth of the indicator strains as measured by zone of inhibition (ZOI). […] Therefore, we conclude that the primary antimicrobial secreted by P. acidilactici UL5 was pediocin PA-1.
We then proceeded to clone the pediocin operon from P. acidilactici UL5 into pSIP-P27 vector for heterologous expression in other lactic acid bacteria viz. Lactiplantibacillus plantarum WCFS1, Lactococcus cremoris MG1363 and the well-established expression host, E. coli MG1655. The pediocin operon imparted anti-listerial activity to the L. plantarum culture supernatant but not to that of L. cremoris or E. coli (Figure 1A). […] The peptide using this method was purified 189-fold with specific activity of 9,434 AU·mg^−1 as measured by agar-well diffusion method (Figure 1B, Figure S2A–C). […]

[13] = flow cytometry, Atto488 conjugate up to 2 μM
[14] = signal did not saturate, read-out: Apparent KD
[15] = Table S1, maximum mean fluorescence intensity

15-mer-FITC: FITC-conjugated 15-mer (K20-A34) fragment of pediocin PA-1 (KATTCIINNGAMAWA; also: FITC-conjugated, site not given here; UniProt P29430 38-52, looked up, fragment)
binding at the tested pHs (in words) [1]: pH-dependent binding | Kd ([1]; pH 6.0 sodium phosphate 5 mM, 1 % BSA, 100 mM NaCl, 4 °C 30 min, read-out: apparent KD): 2800 ± 300 nM | binding (in words) [2]: modest binding | depletion in the proportion of L. seeligeri (fluorescence-negative population after FACS) [3]: more than 50%

30-mer-FITC: FITC-conjugated extended 30-mer fragment (S15-K43) of pediocin PA-1 (SVDWGKATTCIINNGAMAWATGGHQGNHK; also: FITC-conjugated, site not given here; UniProt P29430 33-61, looked up, fragment)
binding at the tested pHs (in words) [1]: pH-dependent binding | binding (in words) ([1]; pH 6.0, L. seeligeri or the other species tested): unable to bind to any species tested

Ped-488: purified biosynthetic pediocin conjugated to Atto488 using EDC-NHS chemistry (KYYGNGVTCGKHSCSVDWGKATTCIINNGAMAWATGGHQGNHKC; disulfide (positions not given here); ends not checked; also: Atto488 conjugated via EDC-NHS, site not given here; UniProt P29430 19-62, looked up)
maximum median fluorescence [4, 13]: 6300 MFI | Kd [4, 13]: ~46 nM | reduction in potency relative to the unmodified peptide ([5]; Atto488 conjugate vs unmodified pediocin): 10 fold | antimicrobial activity (in words) [5]: maintained its antimicrobial activity | antimicrobial activity (in words) ([5]; listed as Full-length pediocin conjugated to Atto488): retained antimicrobial activity | antimicrobial activity (in words) ([5]; listed as conjugate to Atto488): very low activity | Kd ([6]; flow cytometry): ~467 nM

Ped-FITC: synthesized FITC-conjugated full-length pediocin PA-1 ({FITC}-KYYGNGVTCGKHSCSVDWGKATTCIINNGAMAWATGGHQGNHKC; disulfide (positions not given here); ends not checked; UniProt P29430 19-62, looked up)
binding at the tested pHs (in words) [1]: strong binding | depletion in the proportion of L. seeligeri (fluorescence-negative population after FACS) [3]: more than 50% | antimicrobial activity (in words) ([5]; listed as FITC-conjugation at the N-terminus): abolished activity entirely | antimicrobial activity (in words) ([5]; listed as conjugate to FITC): very low activity | binding (in words) ([6]; flow cytometry, pH 6.0, highest concentration tested (30 μM)): modest binding

biosynthetic pediocin PA-1: class IIa bacteriocin partially purified from P. acidilactici UL5 by cell adsorption-desorption (KYYGNGVTCGKHSCSVDWGKATTCIINNGAMAWATGGHQGNHKC; UniProt P29430 19-62, looked up)
EC50 [7]: ~1 nM | Hill co-efficient [8]: 0.7 | Kd [8, 14]: > 2000 nM | Hill co-efficient ([4]; Table S1, fit MFI = MFImax[S]^n/(KD^n+[S]^n)): 1.4 | MFImax (×10^3) [4, 15]: 6.3 ± 0.3 ×10^3 | Kd [4, 13]: 46 ± 8 nM | Hill co-efficient [9]: 0.9 | Kd [9, 14]: > 2000 nM | Hill co-efficient [10]: 0.7 | MFImax (×10^3) ([10]; signal did not saturate): >2* ×10^3 | Kd [10, 14]: > 2000 nM | stability of recovered peptide (in words) [11]: the peptide recovered at the acidic pH was found to be more stable | specific activity [12]: 9,434 AU·mg^−1 | EC50 ([5]; Figure 1C, start OD600 0.05, 96-well plate, growth at 600 nm after 24 h, 3 pM to 3 μM, 10-fold serial dilutions, read-out: EC50 (kill-curve)): ~13.3 nM | Hill co-efficient ([6]; Table S1, Hill fit): 0.9 | MFImax (×10^3) [6, 15]: 7 ± 1 ×10^3 | Kd ([6]; flow cytometry): 467 ± 167 nM
